Patent US20160120848A1, “SPECIFIC CANCER TREATMENT REGIMES WITH GANETESPIB” (SYNTA PHARMACEUTICALS CORP., priority 2013, published 2016)

Assays:
[1] = tested on: inflammatory breast cancer; experiment: Phase 1b study of ganetespib with doxorubicin, cyclophosphamide and docetaxel; assay type: in vivo, patients; conditions: combination with doxorubicin
From the text: This is an open-label, multicenter, Phase 1b, dose-escalation study in patients with locally advanced and inflammatory breast cancer. The purpose of the study is to test the safety and tolerability of ganetespib in patients with operable breast cancer.
Eligible patients must be treatment naïve with histologic confirmation of breast adenocarcinoma, and a tumor that is readily accessible for sequential biopsy. Before the study, patients undergo a complete physical examination, laboratory investigations, chest x-ray, a mammogram and a breast ultrasonography and other imaging studies (e.g., MRI, PET-CT, or mammogram) to determine the local extent of the disease. Abdominal CT scan is performed to exclude metastatic disease. The methods used to document baseline status must be consistently used throughout the study. Prior to entering the study, HER2 status of the tumor is determined by the local lab.
A pharmacodynamics phase consists of ganetespib single agent given at a dose of 150 mg/m^2 twice for 1 week prior to start of dose escalation phase (approximately on Days −7 and −4). A pre-dose tumor biopsy is obtained within 15+/−3 days prior to initiating treatment with ganetespib. A post-treatment […] is obtained on Day −4, to evaluate the effects of ganetespib on downstream effectors regulating tumor proliferation and survival, as well as potential effects on HIF1-transcriptional activity. […]

[2] = tested on: non-small cell lung cancer; experiment: Phase I study of ganetespib with cisplatin/pemetrexed, carboplatin/pemetrexed or carboplatin/paclitaxel; assay type: in vivo, patients; conditions: combination with cisplatin/pemetrexed
From the text: This is a Phase 1, open-label, dose-escalation study in patients with advanced NSCLC with adenocarcinoma histology.
Cohort 1: patients treated with ganetespib, cisplatin and pemetrexed
Cohort 2: patients treated with ganetespib, carboplatin and pemetrexed
Cohort 3: patients treated with ganetespib, carboplatin and paclitaxel
In Cohort 1, one treatment cycle consists of treatment with ganetespib, cisplatin and pemetrexed on Day 1, and ganetespib on Day 15
In Cohort 2, one treatment cycle consists of treatment with ganetespib, carboplatin and pemetrexed on Day 1, and ganetespib on Day 15
In Cohort 3, one treatment cycle consists of treatment with ganetespib, carboplatin and paclitaxel on Day 1, and ganetespib on Day 15
Treatment cycles are repeated every 3 weeks. The total planned number of combination cycles is 4. Ganetespib is administered on Days 1 and 15 of each cycle; cisplatin and pemetrexed, carboplatin and pemetrexed, or carboplatin and paclitaxel are administered on Day 1 of each cycle. Each agent is administered as a separate infusion (see Dose-Escalation Table below). […]
Duration of treatment: the duration of the combination treatment for each regimen is 4 treatment cycles, if tolerated. Patients who complete 4 combination-treatment cycles are evaluated for tumor disease response, general performance status and toxicities. […]

Compound: CC(C)c1cc(-c2n[nH]c(=O)n2-c2ccc3c(ccn3C)c2)c(O)cc1O [ganetespib]
- efficacy [1]: efficacious
- safety profile [1]: good safety profile
- efficacy [2]: efficacious
- safety profile [2]: good safety profile
